In paper PMC11865921, “Effect of mono-guanidine-like derivatives on platelet aggregation and tumour cell induced platelet aggregation” (RSC Medicinal Chemistry, 2025):
Read-outs that look alike come from different tables or passages of the source.

What was measured:
sigma σ1 receptor = target: T1, sigma σ1 receptor; assay: PDSP radioligand competition binding
T1 construct: gene SIGMAR1; PDSP has often used guinea pig or rat tissue for sigma1
From the text: PDSP radioligand competition binding on sigma σ1 receptor

sigma σ2 receptor = target: T2, sigma σ2 receptor; assay: PDSP radioligand competition binding; settings: read-out: [drawing 1]
T2 construct: gene TMEM97; PDSP has often used rat PC12 cells or guinea pig tissue for sigma2
From the text: PDSP radioligand competition binding on sigma σ2 receptor

Structure (SMILES) | Ki (sigma σ1 receptor; read-out: [drawing 1]) [nM] | Ki (sigma σ2 receptor) [nM] | Ki (sigma σ1 receptor; read-out: [drawing 2]) [nM]
N=C(N)Nc1ccc2c(n1)CCCC2 [compound 1] | 266 | 547 | 
c1cc2c(nc1NC1=NCCN1)CCCC2 [compound 2] |  |  | 179
